In ChEMBL document CHEMBL1201862, “PubChem BioAssay data set” (2004):
Calls of active or inactive are those of the source.

Experiments:
[1] = Luminescence Cell-Based Dose Response HTS to Identify Inhibitors of 5'UTR Stem-Loop Driven Prion Protein mRNA Translation in H4 Neuroglioblastoma Cells. [Related pubchem assays: 1827 (Project Summary), 1813 (Primary HTS)]; format: functional
[2] = inhibitors of SNCA 5'UTR-driven reporter translation, confirmation, H4 neuroglioma cells, luminescence (AID 1988); format: functional, cell-based
[3] = Luminescence Cell-Based Dose Retest to Confirm Inhibitors of Cancer Stem Cells. [Related pubchem assays (depositor defined):AID2717, AID2721]; format: functional; conditions: Homo sapiens
[4] = biological target: 1-acylglycerol-3-phosphate O-acyltransferase ABHD5/Perilipin-5 (Homo sapiens, UniProt Q00G26+Q8WTS1); experiment: Luminescence-based biochemical high throughput dose response assay for inhibitors of the interaction of the lipase co-activator protein, abhydrolase domain containing 5 (ABHD5) with perilipin-5 (MLDP; PLIN5) (2K validation set). [Related pubchem assays (depositor defined):AID493035, AID493241]
1-acylglycerol-3-phosphate O-acyltransferase ABHD5/Perilipin-5, sequence (Q00G26 whole entry, the tested form may be a part): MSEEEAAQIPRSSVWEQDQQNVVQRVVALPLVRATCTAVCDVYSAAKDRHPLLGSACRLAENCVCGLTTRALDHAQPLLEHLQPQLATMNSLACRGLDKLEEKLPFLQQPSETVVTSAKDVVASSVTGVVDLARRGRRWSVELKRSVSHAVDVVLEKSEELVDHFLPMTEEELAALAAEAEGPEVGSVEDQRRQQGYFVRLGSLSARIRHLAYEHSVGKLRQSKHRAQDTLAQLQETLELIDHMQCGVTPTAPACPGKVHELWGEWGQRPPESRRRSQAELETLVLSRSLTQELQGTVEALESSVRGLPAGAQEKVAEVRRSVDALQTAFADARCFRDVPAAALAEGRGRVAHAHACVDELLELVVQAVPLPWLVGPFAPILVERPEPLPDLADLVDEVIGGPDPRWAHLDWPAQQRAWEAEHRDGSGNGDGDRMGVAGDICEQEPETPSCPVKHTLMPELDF
1-acylglycerol-3-phosphate O-acyltransferase ABHD5/Perilipin-5, sequence (Q8WTS1 whole entry, the tested form may be a part): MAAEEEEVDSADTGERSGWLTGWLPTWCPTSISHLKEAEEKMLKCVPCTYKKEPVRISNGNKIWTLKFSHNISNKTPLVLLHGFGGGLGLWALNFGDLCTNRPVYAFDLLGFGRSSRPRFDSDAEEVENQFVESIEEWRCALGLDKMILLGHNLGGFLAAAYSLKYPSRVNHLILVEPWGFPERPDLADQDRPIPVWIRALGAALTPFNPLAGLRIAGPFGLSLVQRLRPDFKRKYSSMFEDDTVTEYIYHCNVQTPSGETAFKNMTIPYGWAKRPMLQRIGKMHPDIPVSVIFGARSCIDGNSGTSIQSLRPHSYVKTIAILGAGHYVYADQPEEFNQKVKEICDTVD

Perilipin-1/ABHD5 = Perilipin-1/ABHD5 (Homo sapiens, UniProt O60240+Q8WTS1); experiment: Luminescence-based biochemical high throughput dose response assay for inhibitors of the interaction of the lipase co-activator protein, abhydrolase domain containing 5 (ABHD5) with perilipin-1 (PLIN1) (2K validation set). [Related pubchem assays (depositor defined):AID493027, AID493057]
Perilipin-1/ABHD5, sequence (Q8WTS1 whole entry, the tested form may be a part): as above
Perilipin-1/ABHD5, sequence (O60240 whole entry, the tested form may be a part): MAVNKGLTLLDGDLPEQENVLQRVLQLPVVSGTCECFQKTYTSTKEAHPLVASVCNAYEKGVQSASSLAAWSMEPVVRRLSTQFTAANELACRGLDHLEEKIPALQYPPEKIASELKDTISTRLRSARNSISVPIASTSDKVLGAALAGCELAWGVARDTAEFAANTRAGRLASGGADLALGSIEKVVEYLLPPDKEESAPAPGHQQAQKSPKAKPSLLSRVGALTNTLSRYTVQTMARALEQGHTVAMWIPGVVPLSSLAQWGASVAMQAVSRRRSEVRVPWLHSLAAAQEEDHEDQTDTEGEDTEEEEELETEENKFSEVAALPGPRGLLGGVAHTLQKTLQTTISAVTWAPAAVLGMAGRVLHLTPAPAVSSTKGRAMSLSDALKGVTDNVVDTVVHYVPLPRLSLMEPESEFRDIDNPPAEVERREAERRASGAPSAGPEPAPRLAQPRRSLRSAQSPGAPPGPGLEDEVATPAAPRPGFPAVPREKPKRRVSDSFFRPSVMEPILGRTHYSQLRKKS

[5] = biological target: Neurotensin receptor type 1 (Homo sapiens, UniProt P30989); format: functional;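 further: Image-based confirmatory dose-response assay measuring agonist activity at NTR1; NTR1-expressing U2OS osteosarcoma cells imaged for beta-arrestin GFP spot formation; agonist potency where compounds increase beta-arrestin recruitment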
Neurotensin receptor type 1, sequence (P30989 whole entry): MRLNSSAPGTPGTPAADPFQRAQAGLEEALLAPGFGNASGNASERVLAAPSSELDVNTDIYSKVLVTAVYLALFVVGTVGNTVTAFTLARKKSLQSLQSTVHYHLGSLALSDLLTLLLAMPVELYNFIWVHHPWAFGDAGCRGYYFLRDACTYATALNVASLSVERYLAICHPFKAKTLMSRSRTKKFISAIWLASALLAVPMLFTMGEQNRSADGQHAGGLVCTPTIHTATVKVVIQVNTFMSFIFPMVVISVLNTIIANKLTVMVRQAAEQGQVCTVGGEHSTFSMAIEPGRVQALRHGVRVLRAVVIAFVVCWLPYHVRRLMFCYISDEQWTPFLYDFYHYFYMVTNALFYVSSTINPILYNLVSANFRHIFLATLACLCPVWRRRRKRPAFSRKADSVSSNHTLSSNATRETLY

X-box-binding protein 1 = X-box-binding protein 1 (Homo sapiens, UniProt P17861); format: functional, Cricetulus griseus;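 further: confirmatory dose-response counter-screen serving a CHOP assay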
X-box-binding protein 1, sequence (P17861 whole entry): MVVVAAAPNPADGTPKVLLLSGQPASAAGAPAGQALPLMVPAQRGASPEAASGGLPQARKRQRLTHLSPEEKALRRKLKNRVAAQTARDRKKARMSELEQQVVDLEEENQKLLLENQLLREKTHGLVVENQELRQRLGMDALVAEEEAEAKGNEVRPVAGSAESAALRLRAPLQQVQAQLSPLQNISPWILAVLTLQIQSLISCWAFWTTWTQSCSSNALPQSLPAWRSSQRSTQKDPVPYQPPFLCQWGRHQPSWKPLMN

BJ [6] = experiment: cytotoxicity toward BJ-TERT fibroblasts, dose response, cell-based, RAS-independent, luminescence (AID 1933); format: functional; conditions: Homo sapiens
BJ [7] = experiment: cells; format: functional, cell-based; conditions: Homo sapiens
BJ [8] = experiment: cytotoxicity toward BJ-TERT-LT-ST fibroblasts, dose response, cell-based, RAS-independent, luminescence (AID 1935); format: functional; conditions: Homo sapiens;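 further: BJ fibroblasts immortalized with TERT plus LT and ST oncogenes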
[9] = cytotoxicity toward DRD oncogenic fibroblasts, dose response, cell-based, non-viral oncogenic, luminescence (AID 1934); format: functional; conditions: Homo sapiens
Saccharomyces cerevisiae = experiment: NALP1 inhibitor project selectivity study, Caspase-1/ASC signal blockade IC50 in S. cerevisiae (AID 488863); format: functional, organism-based
[10] = biological target: NACHT, LRR and PYD domains-containing protein 1 (Homo sapiens, UniProt Q9C000); experiment: NALP1 inhibitors in yeast, dose response, luminescent (AID 488860); format: functional
[11] = NIH-3T3 fibroblast cytotoxicity, dose response, cytotoxicity control, cell-based, fluorescence, Alamar Blue, secondary assay (AID 2327); format: functional;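 further: NIH-3T3 mouse fibroblasts cultured with fluconazole at 8 µg/mL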
[12] = C. albicans growth with fluconazole, confirmation, fluorescence, retest (AID 2467); format: functional, cell-based
[13] = biological target: T1, Mannose-6-phosphate isomerase (Homo sapiens, UniProt P34949); experiment: inhibitors of human PMI, primary screen, biochemical, fluorescence intensity, coupled assay (AID 1209)
T1 sequence (P34949 whole entry): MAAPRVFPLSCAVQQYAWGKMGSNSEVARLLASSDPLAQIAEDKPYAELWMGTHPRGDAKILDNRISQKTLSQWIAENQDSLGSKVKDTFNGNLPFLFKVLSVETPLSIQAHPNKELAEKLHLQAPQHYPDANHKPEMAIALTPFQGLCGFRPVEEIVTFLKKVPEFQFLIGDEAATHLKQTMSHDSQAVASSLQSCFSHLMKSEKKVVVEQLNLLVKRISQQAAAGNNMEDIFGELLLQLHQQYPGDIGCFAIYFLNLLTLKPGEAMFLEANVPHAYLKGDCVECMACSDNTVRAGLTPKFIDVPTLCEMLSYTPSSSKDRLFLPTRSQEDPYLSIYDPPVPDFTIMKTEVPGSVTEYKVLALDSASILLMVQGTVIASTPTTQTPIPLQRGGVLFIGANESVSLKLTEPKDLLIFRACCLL

[14] = biological target: T1, Mannose-6-phosphate isomerase; experiment: human PMI inhibitors, high substrate, primary screen, biochemical, fluorescence intensity, high mannose 6-phosphate (AID 1220)
Beta-galactosidase = Beta-galactosidase (Escherichia coli, UniProt Q8VNN2); experiment: beta-galactosidase enzyme inhibitors and activators, dose response, artefact control for CCR6 antagonist project, biochemical, E. coli enzyme, set 3 (AID 504712); format: functional
Beta-galactosidase, sequence (Q8VNN2 whole entry): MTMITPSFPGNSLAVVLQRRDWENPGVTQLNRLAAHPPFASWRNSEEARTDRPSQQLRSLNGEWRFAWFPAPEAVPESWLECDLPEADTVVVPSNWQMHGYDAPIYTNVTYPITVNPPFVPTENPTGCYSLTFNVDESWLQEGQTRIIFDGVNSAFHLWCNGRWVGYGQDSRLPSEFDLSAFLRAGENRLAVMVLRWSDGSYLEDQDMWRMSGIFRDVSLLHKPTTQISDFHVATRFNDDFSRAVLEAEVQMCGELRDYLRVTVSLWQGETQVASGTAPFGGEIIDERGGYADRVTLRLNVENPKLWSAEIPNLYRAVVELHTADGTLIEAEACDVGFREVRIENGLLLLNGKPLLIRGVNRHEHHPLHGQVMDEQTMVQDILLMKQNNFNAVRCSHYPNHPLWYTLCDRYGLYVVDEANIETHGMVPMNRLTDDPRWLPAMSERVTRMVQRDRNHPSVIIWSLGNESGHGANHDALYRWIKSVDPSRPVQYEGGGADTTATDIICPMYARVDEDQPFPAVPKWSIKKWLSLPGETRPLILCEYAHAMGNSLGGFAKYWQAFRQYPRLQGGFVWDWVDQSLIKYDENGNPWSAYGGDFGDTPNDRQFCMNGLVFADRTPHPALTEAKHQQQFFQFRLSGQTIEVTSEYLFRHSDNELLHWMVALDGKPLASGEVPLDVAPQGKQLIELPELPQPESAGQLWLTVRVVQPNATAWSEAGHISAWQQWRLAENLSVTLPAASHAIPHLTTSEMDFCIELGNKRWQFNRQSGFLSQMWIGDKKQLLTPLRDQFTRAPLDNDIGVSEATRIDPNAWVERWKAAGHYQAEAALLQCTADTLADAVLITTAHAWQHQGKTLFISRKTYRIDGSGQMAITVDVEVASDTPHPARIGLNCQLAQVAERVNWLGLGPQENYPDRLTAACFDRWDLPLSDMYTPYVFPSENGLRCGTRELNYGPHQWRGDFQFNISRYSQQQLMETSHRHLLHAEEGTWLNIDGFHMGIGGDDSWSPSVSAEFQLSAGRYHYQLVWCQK

Nonstructural protein 1 = Nonstructural protein 1 (Influenza A virus, UniProt Q194T2); format: functional, Influenza A virus (A/California/07/2009(H1N1))
Nonstructural protein 1, sequence (Q194T2 whole entry): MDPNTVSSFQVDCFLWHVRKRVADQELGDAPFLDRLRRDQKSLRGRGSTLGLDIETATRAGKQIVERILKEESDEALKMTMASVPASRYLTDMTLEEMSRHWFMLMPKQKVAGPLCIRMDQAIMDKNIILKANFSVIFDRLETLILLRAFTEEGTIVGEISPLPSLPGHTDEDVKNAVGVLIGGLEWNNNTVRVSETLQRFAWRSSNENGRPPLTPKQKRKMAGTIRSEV

Large T antigen = Large T antigen (Simian virus 40, UniProt P03070); format: functional, Betapolyomavirus macacae;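 further: Confirmatory-stage PubChem screen for compounds that inhibit SV40 T antigen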
Large T antigen, sequence (P03070 whole entry): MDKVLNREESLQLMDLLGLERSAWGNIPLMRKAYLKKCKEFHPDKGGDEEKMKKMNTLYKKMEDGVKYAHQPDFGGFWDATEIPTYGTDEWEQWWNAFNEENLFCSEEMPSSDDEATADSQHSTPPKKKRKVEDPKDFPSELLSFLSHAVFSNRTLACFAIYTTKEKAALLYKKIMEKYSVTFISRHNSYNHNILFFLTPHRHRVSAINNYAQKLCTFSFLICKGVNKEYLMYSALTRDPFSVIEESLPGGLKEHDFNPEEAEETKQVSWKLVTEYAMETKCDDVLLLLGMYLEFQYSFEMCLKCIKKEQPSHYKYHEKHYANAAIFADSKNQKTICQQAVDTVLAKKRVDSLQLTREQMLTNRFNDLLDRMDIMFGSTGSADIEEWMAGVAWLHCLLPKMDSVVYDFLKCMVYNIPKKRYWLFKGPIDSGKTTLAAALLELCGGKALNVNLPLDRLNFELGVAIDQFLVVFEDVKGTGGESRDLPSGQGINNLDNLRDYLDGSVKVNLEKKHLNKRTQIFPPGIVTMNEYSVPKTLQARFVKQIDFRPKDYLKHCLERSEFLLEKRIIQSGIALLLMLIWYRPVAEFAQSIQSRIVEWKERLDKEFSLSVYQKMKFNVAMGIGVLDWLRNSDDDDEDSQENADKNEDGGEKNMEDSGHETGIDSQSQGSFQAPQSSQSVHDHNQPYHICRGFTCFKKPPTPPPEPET

[15] = biological target: T2, DNA dC->dU-editing enzyme APOBEC-3A (Homo sapiens, UniProt P31941); experiment: APOBEC3A DNA deaminase inhibitors, dose response, biochemical (AID 504722); format: functional
T2 sequence (P31941 whole entry): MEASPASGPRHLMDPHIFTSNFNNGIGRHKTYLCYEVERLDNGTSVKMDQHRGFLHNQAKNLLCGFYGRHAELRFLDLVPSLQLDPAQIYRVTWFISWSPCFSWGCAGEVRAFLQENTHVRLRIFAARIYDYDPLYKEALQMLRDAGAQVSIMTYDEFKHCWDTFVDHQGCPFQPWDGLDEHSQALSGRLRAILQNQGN

[16] = biological target: T3, DNA dC->dU-editing enzyme APOBEC-3G (Homo sapiens, UniProt Q9HC16); experiment: Dose Response confirmation of small molecule APOBEC3G DNA Deaminase Inhibitors via a fluorescence-based single-stranded DNA deaminase assay. [Related pubchem assays (depositor defined):AID493012, AID493028]; format: functional
T3 sequence (Q9HC16 whole entry): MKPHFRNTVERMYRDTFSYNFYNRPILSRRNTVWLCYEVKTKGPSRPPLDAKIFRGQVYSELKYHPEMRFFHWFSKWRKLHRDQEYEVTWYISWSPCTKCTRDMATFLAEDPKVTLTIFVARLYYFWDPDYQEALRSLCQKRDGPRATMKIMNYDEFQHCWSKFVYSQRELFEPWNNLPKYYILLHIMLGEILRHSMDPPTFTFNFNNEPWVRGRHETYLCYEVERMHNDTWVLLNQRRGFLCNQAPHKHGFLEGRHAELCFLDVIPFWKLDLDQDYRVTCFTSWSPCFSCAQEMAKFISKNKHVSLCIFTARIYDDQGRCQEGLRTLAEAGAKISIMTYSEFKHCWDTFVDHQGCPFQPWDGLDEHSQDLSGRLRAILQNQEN

[17] = biological target: T2, DNA dC->dU-editing enzyme APOBEC-3A; experiment: SAR analysis of small molecule inhibitors of APOBEC3A DNA Deaminase via a fluorescence-based single-stranded DNA deaminase assay - Set 2.; format: functional; conditions: read-out: IC50_Mean
[18] = biological target: T3, DNA dC->dU-editing enzyme APOBEC-3G; experiment: SAR analysis of small molecule inhibitors of APOBEC3G DNA Deaminase via a fluorescence-based single-stranded DNA deaminase assay - Set 2.; format: functional; conditions: read-out: IC50_Mean
[19] = biological target: T3, DNA dC->dU-editing enzyme APOBEC-3G; experiment: APOBEC3G deaminase inhibitors, SAR follow-up, biochemical, fluorescence, single-stranded DNA substrate (AID 602136); format: functional; conditions: read-out: IC50_Mean
[20] = biological target: T2, DNA dC->dU-editing enzyme APOBEC-3A; experiment: SAR analysis of small molecule inhibitors of APOBEC3A DNA Deaminase via a fluorescence-based single-stranded DNA deaminase assay.; format: functional; conditions: read-out: IC50_Mean
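Wherever AC50 is given: cells exposed to compound for roughly 70 hours or longer before luminescence read.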

For `O=C(Nc1ccc(Oc2c(F)c(F)c(F)c(F)c2F)cc1)OC1CCN2Cc3ccccc3N=C12` (stereo unspecified), the EC50 [1] was 12 µM (active), the EC50 [2] was 8.72 µM (active) and the AC50 [3] was 0.888 µM (active). For the same compound, the IC50 [4] was 9.84 µM (active), the IC50 (Perilipin-1/ABHD5) was 8.78 µM (active) and the EC50 [5] was 19 µM (active). The “Absolute IC50 (XBP1)” value (X-box-binding protein 1) was 10 µM.
With `CCN1/C(=C/C=C/C=C/c2sc3ccccc3[n+]2CC)Sc2ccccc21` [DITHIAZANINE IODIDE] the EC50 (BJ [6]) was 1.7 µM (inconclusive), the EC50 (BJ [7]) was 2.04 µM (inconclusive) and the EC50 (BJ [8]) was 3 µM (inconclusive). For the same compound, the EC50 [9] was 1.68 µM (inconclusive), the IC50 (Saccharomyces cerevisiae) was > 100 µM (inactive) and the IC50 [10] was 19.5 µM (active).
For `Cc1n[nH]c(=S)n(NC(=O)CC(=O)Nn2c(=S)[nH]nc(C)c2=O)c1=O`, the EC50 [11] was > 150 µM (inactive), the EC50 [12] was 4.66 µM (active) and the IC50 [13] was > 50 µM (not active). For the same compound, the IC50 [14] was > 50 µM (not active), the IC50 (Beta-galactosidase) was > 66.6 µM (inactive) and the IC50 (Nonstructural protein 1) was 6.42 µM (active).
With `CCCCn1c(=O)c2ccccc2n2c(S)nnc12` the IC50 (Large T antigen) was 11.5 µM (active), the IC50 [15] was > 100 µM (inactive) and the IC50 [16] was 1.7 µM (active). For the same compound, the IC50 [17] was > 99 µM (inactive), the IC50 [18] was 0.345 µM (active) and the IC50 [19] was 2.72 µM (active). The IC50 [20] was > 99 µM (inactive).
